# Legend:
# [1] = system: chemosensory dysfunction associated with Parkinson's disease; experiment: Treatment of Parkinson's disease chemosensory dysfunction; format: in vivo, human; conditions: about 0.4 ml per day of 3.1 mg/ml theophylline, nasal spray twice daily in each naris, 7 days
# Method: An adult human subject was treated for chemosensory dysfunction associated with Parkinson's disease. […] The subject was administered about 0.4 ml per day of a liquid composition comprising theophylline at a concentration of 3.1 mg/ml in a nasal spray device described herein. The subject administered the nasal spray twice daily in each naris.
# [2] = cited from earlier work
# [3] = system: phantosmia and phantogeusia; experiment: Treatment of phantosmia in a subject; format: in vivo; conditions: thioridazine composition in nasal spray device, 3× daily in each naris
# Description: A subject is admitted to a clinic for phantosmia and phantogeusia. The subject is prescribed a thioridazine composition in a nasal spray device described herein. The subject administers the nasal spray in an effective dose 3× daily in each naris. The nasal spray is characterized by a spray containing a D50 of about 15 μm to about 24 μm, a D90 of from about 30 μm to about 50 μm and where less than about 3% of the droplets in the plume of a spray have a size of less than about 10 μm.
Structure (SMILES),ability to taste and smell [1],solubility in ethanol ([2]; ethanol),solubility in water ([2]; water),symptoms of the phantosmia and phantogeusia [3]
"Cn1c(=O)c2[nH]cnc2n(C)c1=O [Theophylline, theophylline]",regained their ability to taste and smell,14 to 15 mg/mL,7 to 8 mg/mL,
CSc1ccc2c(c1)N(CCC1CCCCN1C)c1ccccc1S2 (stereo not shown) [thioridazine],,,,reduced symptoms

# From patent US20260232678A1, “Nasal Spray for Phosphodiesterase Inhibitors” (Cyrano Therapeutics, Inc., priority 2022, published 2026)
